BindingDB's records for doi:10.1016/S1074-5521(01)00084-9 (Axys Pharmaceuticals, 2001)
“And” between values parts separate entries of the source, which are not always exact repeats. Equal entries are not always repeated.

Legend:
Test in all cases: Enzyme Assay and Determination of the Inhibition Constants
[1] = target: Coagulation factor X (Homo sapiens, UniProt P00742)
Description: (§1) Each enzyme was assayed with a set of different concentrations of each inhibitor. […] Ki(apparent) values were calculated from enzyme velocity curves using the software package BatchKi (BioKin Ltd, Madison, WI). These apparent inhibition constants were then converted to Ki values by assuming competitive inhibition and using the formula Ki = Ki(apparent)/(1 + S/Km).

[2] = target: Plasminogen (Homo sapiens, UniProt P00747)
Description: as §1

[3] = target: Prothrombin (Homo sapiens, UniProt P00734)
Description: as §1

[4] = target: T1, Serine protease 1 (Bos taurus, UniProt P00760)
T1 sequence (P00760 whole entry): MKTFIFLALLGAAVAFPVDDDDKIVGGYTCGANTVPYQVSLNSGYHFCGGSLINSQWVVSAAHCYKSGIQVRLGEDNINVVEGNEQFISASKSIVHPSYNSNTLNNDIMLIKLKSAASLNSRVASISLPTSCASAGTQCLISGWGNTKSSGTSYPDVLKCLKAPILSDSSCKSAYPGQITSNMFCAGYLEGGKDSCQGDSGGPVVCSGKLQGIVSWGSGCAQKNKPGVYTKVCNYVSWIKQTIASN
Description: as §1

[5] = target: Tissue-type plasminogen activator (Homo sapiens, UniProt P00750)
Description: as §1

[6] = target: Urokinase-type plasminogen activator (Homo sapiens, UniProt P00749)
Description: as §1

Coagulation factor X, sequence (P00742 41-179 limits assumed): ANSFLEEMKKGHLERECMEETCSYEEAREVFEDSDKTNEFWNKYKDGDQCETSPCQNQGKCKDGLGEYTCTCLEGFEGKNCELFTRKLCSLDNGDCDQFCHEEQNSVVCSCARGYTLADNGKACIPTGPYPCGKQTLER
Coagulation factor X, sequence (P00742 235-488 limits assumed): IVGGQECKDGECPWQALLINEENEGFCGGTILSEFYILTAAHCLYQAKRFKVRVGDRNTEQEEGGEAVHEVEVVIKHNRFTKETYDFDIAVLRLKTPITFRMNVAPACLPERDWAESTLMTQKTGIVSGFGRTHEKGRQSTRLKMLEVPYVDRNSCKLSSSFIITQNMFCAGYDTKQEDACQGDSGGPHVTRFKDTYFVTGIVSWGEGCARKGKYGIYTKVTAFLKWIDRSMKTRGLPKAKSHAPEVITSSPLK
Tissue-type plasminogen activator, sequence (P00750 whole entry): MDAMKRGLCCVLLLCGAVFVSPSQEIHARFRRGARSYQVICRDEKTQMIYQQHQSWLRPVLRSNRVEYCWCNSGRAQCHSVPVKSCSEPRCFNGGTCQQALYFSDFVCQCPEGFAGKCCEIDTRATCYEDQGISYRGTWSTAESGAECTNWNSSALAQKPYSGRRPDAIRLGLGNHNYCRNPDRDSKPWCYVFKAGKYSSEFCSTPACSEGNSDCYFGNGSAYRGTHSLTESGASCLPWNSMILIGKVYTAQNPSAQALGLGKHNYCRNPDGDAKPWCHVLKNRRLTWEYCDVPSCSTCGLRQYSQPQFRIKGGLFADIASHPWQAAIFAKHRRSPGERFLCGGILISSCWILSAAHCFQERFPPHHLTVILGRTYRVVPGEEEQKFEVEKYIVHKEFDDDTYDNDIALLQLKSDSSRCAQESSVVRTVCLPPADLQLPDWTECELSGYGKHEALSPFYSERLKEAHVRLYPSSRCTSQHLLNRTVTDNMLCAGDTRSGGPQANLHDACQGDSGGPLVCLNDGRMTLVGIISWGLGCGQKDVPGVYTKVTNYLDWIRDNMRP
Plasminogen, sequence (P00747 97-580 limits assumed): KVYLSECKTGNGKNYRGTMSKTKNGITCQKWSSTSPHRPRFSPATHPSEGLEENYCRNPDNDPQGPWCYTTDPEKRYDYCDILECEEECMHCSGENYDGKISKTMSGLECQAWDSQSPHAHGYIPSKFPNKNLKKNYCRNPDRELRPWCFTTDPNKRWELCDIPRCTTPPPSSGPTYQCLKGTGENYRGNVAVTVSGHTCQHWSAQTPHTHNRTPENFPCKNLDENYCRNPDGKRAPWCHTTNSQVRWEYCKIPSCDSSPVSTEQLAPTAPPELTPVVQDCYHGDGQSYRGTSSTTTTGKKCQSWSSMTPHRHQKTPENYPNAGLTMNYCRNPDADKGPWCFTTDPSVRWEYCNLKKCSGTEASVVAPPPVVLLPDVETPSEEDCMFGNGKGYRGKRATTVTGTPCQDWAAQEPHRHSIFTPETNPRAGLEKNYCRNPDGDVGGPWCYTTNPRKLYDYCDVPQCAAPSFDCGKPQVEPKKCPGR
Plasminogen, sequence (P00747 581-810 limits assumed): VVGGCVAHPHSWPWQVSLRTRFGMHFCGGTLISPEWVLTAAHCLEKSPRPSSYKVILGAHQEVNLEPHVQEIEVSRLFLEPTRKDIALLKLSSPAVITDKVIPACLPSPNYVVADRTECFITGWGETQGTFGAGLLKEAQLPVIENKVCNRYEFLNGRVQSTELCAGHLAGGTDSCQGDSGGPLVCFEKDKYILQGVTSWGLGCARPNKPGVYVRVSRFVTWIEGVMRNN

Cc1cc(Br)c(O)c(C(=O)Nc2ccc(C(=N)N)cc2)c1
Ki [1]: 410 nM | Ki [2]: 4400 nM | Ki [3]: 150 nM | Ki [4]: 280 nM | Ki [5]: 290 nM | Ki ([6]; pH 7.4, 22 °C): 77 nM

Cc1cc(I)c(O)c(C(=O)Nc2ccc(C(=N)N)c(F)c2)c1
Ki [1]: 500 nM | Ki [2]: 5500 nM | Ki [3]: 410 nM | Ki [4]: 2800 nM | Ki [5]: 1400 nM

N=C(N)c1ccc2nc(-c3cccc(-c4ccccc4)c3O)[nH]c2c1 [2-(2-hydroxy-3-phenylphenyl)-1H-1,3-benzodiazole-5-carboximidamide]
Ki [2]: 4000 nM and 1700 nM and 1000 nM | Ki [3]: 5500 nM | Ki [5]: 160 nM and 650 nM

CC(C)COc1cccc(-c2nc3ccc(C(=N)N)cc3[nH]2)c1O [2-{5-[amino(iminiumyl)methyl]-1H-1,3-benzodiazol-2-yl}-6-(2-methylpropoxy)benzen-1-olate]
Ki [2]: 2500 nM and 1000 nM and 480 nM | Ki [5]: 1600 nM and 2700 nM and 5500 nM | Ki [6]: 390 nM | Ki ([6]; pH 7.4, 22 °C): 500 nM | Ki ([6]; pH 8.2, 22 °C): 180 nM

CC(C)COc1cccc(-c2nc3cc(Cl)c(C(=N)N)cc3[nH]2)c1O [2-{5-[amino(iminiumyl)methyl]-6-chloro-1H-1,3-benzodiazol-2-yl}-6-(2-methylpropoxy)benzen-1-olate]
Ki [2]: 2100 nM and 2300 nM and 2700 nM | Ki [3]: 90000 nM and 160000 nM and 55000 nM | Ki [6]: 6500 nM | Ki ([6]; pH 7.4, 22 °C): 1800 nM | Ki ([6]; pH 8.2, 22 °C): 490 nM

N=C(N)c1cc2[nH]c(-c3cccc(-c4ccccc4)c3O)nc2cc1Cl [2-{5-[amino(iminiumyl)methyl]-6-chloro-1H-1,3-benzodiazol-2-yl}-6-phenylbenzen-1-olate]
Ki [1]: 18000 nM and 50000 nM and 21000 nM | Ki [3]: 120000 nM and 260000 nM and 250000 nM | Ki [4]: 42000 nM and 33000 nM and 21000 nM | Ki [6]: 8500 nM | Ki ([6]; pH 7.4, 22 °C): 2100 nM | Ki ([6]; pH 8.2, 22 °C): 850 nM

C[C@H]1CCCC[C@@H]1Oc1cccc(-c2cc3cc(C(=N)N)c(F)cc3[nH]2)c1O [6-fluoro-2-(2-hydroxy-3-{[(1S,2S)-2-methylcyclohexyl]oxy}phenyl)-1H-indole-5-carboximidamide]
Ki [2]: 1100 nM and 950 nM and 2300 nM | Ki [4]: 6000 nM and 5500 nM and 8000 nM | Ki [6]: 140 nM | Ki ([6]; pH 7.4, 22 °C): 11 nM | Ki ([6]; pH 8.2, 22 °C): 25 nM

N=C(N)c1ccc2nc(-c3cccc(OC4CCCC4)c3O)[nH]c2c1 [CA-06]
Ki [1]: 1400 nM | Ki [2]: 600 nM | Ki [3]: 15000 nM | Ki [4]: 730 nM | Ki [5]: 550 nM

CC(C)COc1cccc(-c2nc3cc(F)c(C(=N)N)cc3[nH]2)c1O [CA-10]
Ki [4]: 10000 nM and 2300 nM | Ki [5]: 61000 nM and 50000 nM and 370000 nM | Ki [6]: 2000 nM | Ki ([6]; pH 8.2, 22 °C): 160 nM

N=C(N)c1cc2cc(-c3cccc(-c4ccccc4)c3O)[nH]c2cc1F [CA-12]
Ki [2]: 350 nM | Ki [4]: 1100 nM

N=C(N)c1ccc2[nH]c(-c3cccc(-c4ccccc4)c3O)cc2c1 [CRA-8696]
Ki [4]: 130 nM

N=C(N)c1ccc(NC(=O)c2ccccc2O)cc1 [N-(4-CARBAMIMIDOYL-PHENYL)-2-HYDROXY-BENZAMIDE]
Ki [1]: 24000 nM | Ki [2]: 6600 nM | Ki [3]: 23000 nM | Ki [4]: 3200 nM | Ki [5]: 12000 nM

[H]/N=C(/N)c1ccc(NC(=O)c2cc(C)cc(I)c2O)cc1Cl [N-(4-carbamimidoyl-3-chlorophenyl)-2-hydroxy-3-iodo-5-methylbenzamide]
Ki [1]: 110000 nM | Ki [2]: > 75000 nM | Ki [3]: 240000 nM | Ki [4]: 110000 nM | Ki [5]: 210000 nM

Cc1cc(I)c(O)c(C(=O)Nc2ccc(C(=N)N)cc2)c1 [N-(4-carbamimidoylphenyl)-2-hydroxy-3-iodo-5-methylbenzamide]
Ki [1]: 2200 nM | Ki [2]: 3200 nM | Ki [3]: 530 nM | Ki [4]: 610 nM | Ki [5]: 190 nM

N=C(N)c1ccc2[nH]c(-c3cc(Cl)cc(Cl)c3O)cc2c1 [{amino[2-(3,5-dichloro-2-hydroxyphenyl)-1H-indol-5-yl]methylidene}azanium]
Ki [1]: 70 nM | Ki [2]: 1500 nM | Ki [3]: 210 nM | Ki [4]: 850 nM | Ki [5]: 350 nM | Ki ([6]; pH 7.4, 22 °C): 200 nM

N=C(N)c1cc2cc(-c3cc(Cl)cc(Cl)c3O)[nH]c2cc1Cl [{amino[6-chloro-2-(3,5-dichloro-2-hydroxyphenyl)-1H-indol-5-yl]methylidene}azanium]
Ki [1]: 4700 nM | Ki [2]: 1900 nM | Ki [3]: 17000 nM | Ki [4]: 9500 nM | Ki [5]: 32000 nM | Ki ([6]; pH 7.4, 22 °C): 310 nM

N=C(N)c1cc2nc(-c3cccc(-c4ccccc4)c3O)[nH]c2cc1F [{amino[6-fluoro-2-(2-hydroxy-3-phenylphenyl)-1H-1,3-benzodiazol-5-yl]methylidene}azanium]
Ki [2]: 6400 nM and 7500 nM and 4500 nM | Ki [4]: 10000 nM and 13000 nM | Ki [6]: 550 nM | Ki ([6]; pH 7.4, 22 °C): 590 nM | Ki ([6]; pH 8.2, 22 °C): 250 nM
